Assay results as given in patent publication US10889849B2, “Oxidized glutathione assay” (PROMEGA CORPORATION, priority 2010, dated 2021).

What was measured:
Format in all cases: cell-based
HepG2 cells = assay: Determination of GSH:GSSG ratio in HepG2 cells; details: HepG2 cells, 5,000 cells/well, 60 minutes with 40 uM menadione
Protocol: (§1) The assay is optimized for low cell densities such as HeLa or HepG2 cells at 5,000-10,000 cells per well and hepatocytes at 10,000 to 20,000 cells/well. HeLa or HepG2 cells were plated on Corning Costar 3903 96-well flat bottom tissue culture-treated white with clear bottom. Hepatocytes were plated on BD BioCoat™ 4650 96-well Collagen 1 Cellware. Hepatocytes were cultured with vendor recommended hepatocyte media. If clear walled tissue culture plates are used, a transfer step must be performed after Luciferase Detection Reagent (LDR) addition to get the reactions into luminometer plates. Plate cells and incubate overnight at 37° C. in a 5% CO2 culture incubator.
(§2) Menadione is a Reactive Oxygen Species (ROS) inducer and is used as a positive control. 40 μM Menadione was prepared in Krebs-Ringer, Krebs-Henseleit, or Hank's Balanced Salts (HBSS) buffers. Other buffers […] to dilute the Menadione as components of cell culture media, such as serum, phenol red, and cysteine, can interfere with the assay chemistry. No treatment controls (vehicle only) were performed by exchanging the culture media on the cells with buffer+ vehicle at the same time as treating the cells with Menadione.
(§3) The below reagent was prepared for measurement of GSSG. […]
(§4) Compound treatment was removed and discarded from the adherent cells. […] Again, the plated was shook briefly, incubated at room temperature for 10 min, and luminescence read.
(§5) The […] is calculated by dividing the moles of GSH in a sample by the moles of GSSG in a sample. Because each mole of GSSG produces two moles of GSH, and the assay produces a signal from all of the GSH produced by reduction of GSSG, a 2-fold adjustment is required in the number of moles of GSH quantified by the GSH standard curve.
(§6) For background, the luminescence (RLUs) generated from no cell control or 0 μM GSH from the standard curve was used. […] The GSH/GSSG ratio for untreated cells was calculated using the formula: […]
iii. […] GSSG and GSH were detected by the method described in A. The ratio GSH/GSSG was calculated as described in B.

Rat hepatocytes = assay: Determination of GSH:GSSG ratio in rat hepatocytes; details: Rat hepatocytes, 20,000 cells/well, 60 minutes with 40 uM menadione
Protocol: as §1
as §2, with “Menadione. […]” for “Menadione.”
as §4, §5, §6
ii: Rat hepatocytes, 20,000 cells/well, were treated as in i. GSSG and GSH were detected by the method described in A. The ratio GSH/GSSG was calculated as described in B.

A549 cells [1] = assay: Detection of reactive oxygen effects by sampling media (GSSG and GSH in cells and media); details: 1 hour
Protocol: A549 cells were plated at a density of 5,000 cells per well in a 96-well tissue culture plate in 100 ul of DMEM with 10% fetal calf serum and incubated for 48 hours at 37° C. with 10% CO2. After incubation, the media was removed, discarded, and replaced with HBSS buffer with or without 40 uM menadione. The plate was then incubated for 1 hour at 37° C. with 10% CO2.
After the 1 hour treatment, the HBSS buffer from the cells was transferred to a fresh, 96-well plate. The cells were then given 100 ul of fresh HBSS buffer and a concentrated solution of PLB with or without NEM. The following conditions (in triplicate) resulted from these manipulations: • 1. Cell GSH and GSSG were measured from the lysate of cells where the vehicle or menadione treatment with HBSS buffer was removed prior to lysis. • 2. Media GSH and GSSG were measure from the HBSS buffer transferred from the cells. • 3. Total GSH and total GSSG were measured from the lysate of cells treated with HBSS buffer where the HBSS buffer was not removed prior to addition of PLB.
For measurement of GSSG, samples were given a mixture containing GST-22, 25 mM NEM, and 1× Passive Lysis Buffer. For measurement of GSH, samples were given a mixture containing GST-22 and 1× Passive Lysis Buffer. Samples were incubated for 5 minutes at room temperature, and 25 μl LDR with 100 mM DTT and GST added. Samples were then incubated for 30 minutes at room temperature, and 150 μl LDR added. Luminescence was detected after 15 minute room temperature incubation.
It should be noted that one could expect the total glutathione species from the media and the cells to be about equal to the total well measurement. This calculation is shown in the third row of Table 7. The ratio of GSH to GSSG was also determined (FIG. 10).

A549 cells [2] = assay: Measurements of cell lysis (LDH release and ATP levels); details: menadione treatment, data not shown
From the text: From the data in Table 7 and FIG. 9, it is clear that measurement of GSSG in the media alone would have indicated some effect of the menadione treatment on the cells.

Jurkat cells = assay: Determination of GSH:GSSG ratio in Jurkat cells; details: 60 minutes with 40 uM menadione
Protocol: Suspension cells, such as Jurkat or […], are washed in Krebs-Ringer, Krebs-Henseleit, or Hank's Balanced Salts (HBSS) buffers to remove traces of medium and serum. Cells are then counted and diluted in one of the above buffers at the desired density. For Jurkat cells, 10,000 to 20,000 cells/well were used. 20 μl of cell suspension (at the desired density) were then added to wells of a 96-well plate. Enough wells with cells were plated for test compound treatment, vehicle-only treatment and no treatment controls. […]
as §4, §5, §6
iv. […] GSSG and GSH were detected by the method described in A. The ratio GSH/GSSG was calculated as described in B

HeLa cells = assay: Determination of GSH:GSSG ratio in HeLa cells; details: HeLa cells, 5,000 cells/well, 60 minutes with 40 uM menadione
Protocol: as §1, §2, §3, §4, §5, §6
i. […] GSSG and GSH were detected by the method described in A. The ratio GSH/GSSG was calculated as described in B.

[3] = 40 uM menadione in HBSS, HBSS buffer transferred from the cells
[4] = 40 uM menadione in HBSS, lysate of cells, buffer removed prior to lysis
[5] = 40 uM menadione, HBSS buffer not removed prior to addition of PLB
[6] = 40 uM menadione, calculated sum of cell and media

With `CC1=CC(=O)c2ccccc2C1=O` [Menadione] the “Ratio GSH/GSSG, treated” value (HepG2 cells) was 1.5, the “Treated Net RLU, GSH” value (HepG2 cells) was 4162074 RLU and the “Treated Net RLU, GSSG” value (HepG2 cells) was 2364652 RLU. For the same molecule, the “Ratio GSH/GSSG, treated” value (Rat hepatocytes) was 1.1, the “Treated Net RLU, GSH” value (Rat hepatocytes) was 10722488 RLU and the “Treated Net RLU, GSSG” value (Rat hepatocytes) was 6900404 RLU. For the same molecule, the “GSH, averaged RLU, Media” value (A549 cells [1]; [3]) was 3,491,077 RLU, the “GSSG, averaged RLU, Media” value (A549 cells [1]; [3]) was 2,494,444 RLU and the “GSH, averaged RLU, Cell” value (A549 cells [1]; [4]) was 10,613,488 RLU. The “GSSG, averaged RLU, Cell” value (A549 cells [1]; [4]) was 464,099 RLU, the “GSH, averaged RLU, Total Well” value (A549 cells [1]; [5]) was 12,903,498 RLU and the “GSSG, averaged RLU, Total Well” value (A549 cells [1]; [5]) was 3,189,598 RLU. The “GSH, RLU, Total (Cell + Media)” value (A549 cells [1]; [6]) was 14,104,565 RLU, the “GSSG, RLU, Total (Cell + Media)” value (A549 cells [1]; [6]) was 2,958,543 RLU and the “Cell lysis (LDH release and ATP levels)” value (A549 cells [2]) was “did not suggest that any lysis had taken place”. The “Ratio-Treated (GSH/GSSG)” value (Jurkat cells; Jurkat cells, 10,000 cells/well) was 3.8, the “Ratio-Treated (GSH/GSSG)” value (Jurkat cells; Jurkat cells, 20,000 cells/well) was 3.6 and the “Ratio GSH/GSSG, treated” value (HeLa cells) was 2.2. For the same molecule, the “Treated Net RLU, GSH” value (HeLa cells) was 12364719 RLU and the “Treated Net RLU, GSSG” value (HeLa cells) was 5894364 RLU.
